The text below walks through data of ChEMBL document CHEMBL5131527, “Novel BTK Inhibitors for Treating Autoimmune Disorders and Cancer” (ACS Med Chem Lett, 2022).

This assay deals with Tyrosine-protein kinase BTK (Homo sapiens, UniProt Q06187). As to the kind of experiment: Inhibition of BTK (unknown origin) using fluorescein-labeled polyGAT peptide as substrate incubated for 75 min in presence of ATP by time resolved fluorescence method.
Sequence of Tyrosine-protein kinase BTK (Q06187 whole entry): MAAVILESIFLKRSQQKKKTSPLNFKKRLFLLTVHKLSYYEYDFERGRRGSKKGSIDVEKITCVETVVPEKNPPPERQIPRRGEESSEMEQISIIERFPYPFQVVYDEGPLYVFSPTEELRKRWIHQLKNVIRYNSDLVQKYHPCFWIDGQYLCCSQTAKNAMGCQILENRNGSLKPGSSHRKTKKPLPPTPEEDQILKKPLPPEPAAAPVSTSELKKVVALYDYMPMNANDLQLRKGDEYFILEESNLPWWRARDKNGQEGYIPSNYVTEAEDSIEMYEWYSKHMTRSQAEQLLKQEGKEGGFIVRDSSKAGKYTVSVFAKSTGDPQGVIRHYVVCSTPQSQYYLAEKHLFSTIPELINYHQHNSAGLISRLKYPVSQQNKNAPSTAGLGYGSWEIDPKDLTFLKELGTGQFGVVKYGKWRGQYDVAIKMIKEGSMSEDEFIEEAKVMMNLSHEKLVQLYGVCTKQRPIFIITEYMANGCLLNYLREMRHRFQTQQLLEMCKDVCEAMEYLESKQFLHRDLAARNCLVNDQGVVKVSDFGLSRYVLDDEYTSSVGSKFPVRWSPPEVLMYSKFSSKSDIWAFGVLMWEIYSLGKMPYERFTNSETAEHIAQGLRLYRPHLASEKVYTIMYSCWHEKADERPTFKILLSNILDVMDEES

As to `C=CC(=O)N1CCN(c2cnccc2-c2ccc(CNC(=O)c3noc(C(C)(C)C)n3)c(C)c2)CC1`, the IC50 (in general, the concentration needed to halve the response being measured) is not above 1 nM.
The same measure for `C=CC(=O)N1CCN(c2cncnc2-c2ccc(CNC(=O)c3cn(C(C)(C)C)nn3)c(C)c2)CC1`: not above 1 nM.
Next, `C=CC(=O)N(C)C1CCCN(c2cnccc2-c2ccc(CNC(=O)c3noc(C(C)(C)C)n3)c(C)c2)C1` (stereo unspecified): not above 1 nM; `C=CC(=O)N(C)C1CCN(c2cncnc2-c2ccc(CNC(=O)c3cn(C(C)(C)C)nn3)c(C)c2)C1` (stereo unspecified): not above 1 nM; `C=CC(=O)N1CCN(c2cncnc2-c2ccc(CNC(=O)c3nnn(C(C)(C)C)n3)c(C)c2)CC1`: not above 1 nM.
The same measure for `C=CC(=O)N(C)CC1CCN(c2cncnc2-c2ccc(CNC(=O)c3noc(C(C)(C)C)n3)c(C)c2)C1` (stereo unspecified): not above 1 nM.
